Data taken from patent US20130254944A1, “Herbicide Tolerant Soybeans and Methods of Use” (PIONEER HI BRED INTERNATIONAL INC, priority 2012, published 2013).

Legend:
Type in all cases: in vivo
wild type soybean = experiment: Greenhouse postemergence test of ALS-inhibiting herbicides, wild type soybean
Method: (§1) Soybean lines having wild type als1 & 2 genes, the Als1 mutation, the Als2 mutation, or both the Als1 and Als2 mutations were evaluated for their response to various herbicides. Two seeds from each line were planted into 4-inch pots containing Redi-Earth potting mix (Sun Gro Horticulture Canada Ltd. 52130 RR65, Seba Beach, Alberta TOE 2B0), with two replications planted for each treatment. Pots were placed in flats at 15 pots/flat, and the resulting plants were grown in a greenhouse environment supplemented with lighting (16 hr photoperiod) for the duration of the test. Selected herbicides representing the mode of action that inhibits the acetolactate synthase enzyme, also known as the acetohydroxyacid synthase enzyme, were applied postemergence to soybean when soybean plants were at the V2 growth stage, which is the stage at which the first two trifoliolate leaves were expanded.
(§2) Eleven active ingredients representing the five chemical families with herbicidal activity on the acetolactate synthase enzyme were tested. These herbicides can cause a phytotoxic response in wild type soybean plants. The five chemical families tested were sulfonylaminocarbonyltriazolinone (also known as triazolinone), imidazolinone, sulfonylurea, pyrimidinylthiobenzoate, and triazolopyrimidine. Application rates ranged from 0.5 times to eight times the currently labeled application rate for each active ingredient with spray application volume at 30 gallons/acre. The application rates tested were 0.5×, 1×, 2×, 4× and 8× the label rate for each herbicide. Herbicidal active ingredients were applied as formulated materials dispersed in water containing 0.25% nonionic surfactant (Trend® 90).
(§3) The test was evaluated by visually scoring plant phenotype 14 days after the herbicides were applied. Controls consisted of soybean plants of the same variety that received no herbicide treatments for each of all the varieties tested. Soybean response was recorded on a zero to 100 visual scale in which zero is no phytotoxic response and 100 is plant death fourteen days after the herbicides were applied. Soybean response (percent phytotoxicity) to postemergence applications of herbicides inhibiting the acetolactate synthase enzyme test results are shown in Table 1.

[1] = system: soybean having the Als1 mutation; experiment: Greenhouse postemergence test of ALS-inhibiting herbicides, soybean with Als1 mutation; details: for Avg response (% phytotoxicity), Trait Als1: Table 2; for EC10, Als1: rate of herbicide estimated to cause 10% phytotoxic response, loglogistic fit
Method: as §1, §2, §3
(§4) Results in Table 1 were evaluated using the isobole method for analyzing interactions. […] Here the biologically active agents that are being assessed for interaction (synergy) are gene mutations in soybean. The effectiveness of the genes in providing improved tolerance to ALS-inhibiting herbicides was assessed by applying increasing doses of herbicides to each soybean line with its mutation(s).
(§5) An isobole reduces a dose response surface in three dimensional space to a two dimensional plot by fixing a defined response level (e.g., 50% response). The isobole plot is a graph in the Cartesian plane with a straight line connecting the isoeffective rates of the individual components of the combination. This straight line represents expected responses for zero interactive combinations. The isoeffective rate used to create the isobole is often the EC50, the rate estimated to elicit 50% response, but other ECx values can be used. Since the isobole method is based on the potency of the components of the combination, an experimental design testing a range of rates expected to elicit the full range of responses (e.g., 0 to maximum response) is best. (Ferry et al. (2005) 2005 Conference on Applied Statistics in Agriculture Proceedings pp 33-50, Manhattan, Kans., Kansas State Univ.; Green and Streibig (1993) Herbicide Mixtures, pp 117-134 in Herbicide Bioassays, Streibig and Hudsk Eds, CRC, Boca Raton, Fla.).
(§6) Loglogistic dose response curves were fit to percent phytotoxicity response data using log 10 of dose (McCullagh and Nelder (1989) Generalized Linear Models, Chapman & Hall, London). Curves were fit using the logit link with normal errors. […]

[2] = system: soybean having both the Als1 and Als2 mutations; experiment: Greenhouse postemergence test of ALS-inhibiting herbicides and isobole analysis, soybean with Als1 and Als2 mutations; details: for Avg response (% phytotoxicity), Trait Als1 + Als2: Table 2; for EC10, Als1 + Als2: rate of herbicide estimated to cause 10% phytotoxic response, loglogistic fit
Method: as §1, §2, §3, §4, §5, §6

[3] = system: soybean having the Als2 mutation; experiment: Greenhouse postemergence test of ALS-inhibiting herbicides, soybean with Als2 mutation; details: for Avg response (% phytotoxicity), Trait Als2: Table 2; for EC10, Als2: rate of herbicide estimated to cause 10% phytotoxic response, loglogistic fit
Method: as §1, §2, §3, §4, §5, §6

[4] = 35 g ai/ha postemergence at V2, scored 14 days after application
[5] = 70 g ai/ha postemergence at V2, scored 14 days after application
[6] = 140 g ai/ha postemergence at V2, scored 14 days after application
[7] = 280 g ai/ha postemergence at V2, scored 14 days after application
[8] = 560 g ai/ha postemergence at V2, scored 14 days after application
[9] = 17.5 g ai/ha postemergence at V2, scored 14 days after application

Row | Compound | Soybean response (percent phytotoxicity), Wild type (wild type soybean; [4]) [%] | Soybean response (percent phytotoxicity), Wild type (wild type soybean; [5]) [%] | Soybean response (percent phytotoxicity), Wild type (wild type soybean; [6]) [%] | Soybean response (percent phytotoxicity), Wild type (wild type soybean; [7]) [%] | Soybean response (percent phytotoxicity), Als1 [1, 4] [%] | Avg response (% phytotoxicity), Trait Als1 ([1]; 35 g ai/ha) [%] | Soybean response (percent phytotoxicity), Als1 [1, 5] [%] | Avg response (% phytotoxicity), Trait Als1 ([1]; 70 g ai/ha) [%] | Soybean response (percent phytotoxicity), Als1 [1, 6] [%] | Avg response (% phytotoxicity), Trait Als1 ([1]; 140 g ai/ha) [%] | Soybean response (percent phytotoxicity), Als1 [1, 7] [%] | Avg response (% phytotoxicity), Trait Als1 ([1]; 280 g ai/ha) [%] | Soybean response (percent phytotoxicity), Als1 + Als2 [2, 4] [%] | Avg response (% phytotoxicity), Trait Als1 + Als2 ([2]; 35 g ai/ha) [%] | Soybean response (percent phytotoxicity), Als1 + Als2 [2, 5] [%] | Avg response (% phytotoxicity), Trait Als1 + Als2 ([2]; 70 g ai/ha) [%] | Soybean response (percent phytotoxicity), Als1 + Als2 [2, 6] [%] | Avg response (% phytotoxicity), Trait Als1 + Als2 ([2]; 140 g ai/ha) [%] | Soybean response (percent phytotoxicity), Als1 + Als2 [2, 7] [%] | Avg response (% phytotoxicity), Trait Als1 + Als2 ([2]; 280 g ai/ha) [%] | further results
1 | COc1cc(OC)nc(Sc2cccc(Cl)c2C(=O)O)n1 [Pyrithiobac sodium] | 70 | 95 | 98 | 98 | 20 | 20 | 50 | 50 | 70 | 70 | 98 | 98 | 0 | 0 | 5 | 5 | 25 | 25 | 45 | 45 | Soybean response (percent phytotoxicity), Wild type (wild type soybean; [8]): 98%; Soybean response (percent phytotoxicity), Als1 [1, 8]: 97%; Avg response (% phytotoxicity), Trait Als1 ([1]; 560 g ai/ha): 96.5%; Soybean response (percent phytotoxicity), Als1 + Als2 [2, 8]: 50%; Avg response (% phytotoxicity), Trait Als1 + Als2 ([2]; 560 g ai/ha): 50%; Soybean response (percent phytotoxicity), Als2 [3, 4]: 20%; Avg response (% phytotoxicity), Trait Als2 ([3]; 35 g ai/ha): 40%; Soybean response (percent phytotoxicity), Als2 [3, 5]: 30%; Avg response (% phytotoxicity), Trait Als2 ([3]; 70 g ai/ha): 60%; Soybean response (percent phytotoxicity), Als2 [3, 6]: 40%; Avg response (% phytotoxicity), Trait Als2 ([3]; 140 g ai/ha): 80%; Soybean response (percent phytotoxicity), Als2 [3, 7]: 45%; Avg response (% phytotoxicity), Trait Als2 ([3]; 280 g ai/ha): 92.5%; Soybean response (percent phytotoxicity), Als2 [3, 8]: 49%; Avg response (% phytotoxicity), Trait Als2 ([3]; 560 g ai/ha): 98%
2 | COc1nn(C(=O)NS(=O)(=O)c2ccccc2OC(F)(F)F)c(=O)n1C [Flucarbazone] | 80 | 90 | 98 | 98 | 0 | 0 | 5 | 5 | 10 | 10 | 10 | 10 | 0 | 0 | 0 | 0 | 0 | 0 | 0 | 0 | Soybean response (percent phytotoxicity), Wild type (wild type soybean; [9]): 60%; Soybean response (percent phytotoxicity), Als1 [1, 9]: 0%; Avg response (% phytotoxicity), Trait Als1 ([1]; 17.5 g ai/ha): 0%; EC10, Als1 [1]: 230.45 g ai/ha; Soybean response (percent phytotoxicity), Als1 + Als2 [2, 9]: 0%; Avg response (% phytotoxicity), Trait Als1 + Als2 ([2]; 17.5 g ai/ha): 0%; EC10, Als1 + Als2 [2]: >280 g ai/ha; Soybean response (percent phytotoxicity), Als2 [3, 9]: 5%; Avg response (% phytotoxicity), Trait Als2 ([3]; 17.5 g ai/ha): 5%; Soybean response (percent phytotoxicity), Als2 [3, 4]: 15%; Avg response (% phytotoxicity), Trait Als2 ([3]; 35 g ai/ha): 30%; Soybean response (percent phytotoxicity), Als2 [3, 5]: 20%; Avg response (% phytotoxicity), Trait Als2 ([3]; 70 g ai/ha): 50%; Soybean response (percent phytotoxicity), Als2 [3, 6]: 25%; Avg response (% phytotoxicity), Trait Als2 ([3]; 140 g ai/ha): 55%; Soybean response (percent phytotoxicity), Als2 [3, 7]: 30%; Avg response (% phytotoxicity), Trait Als2 ([3]; 280 g ai/ha): 60%; EC10, Als2 [3]: 8.14 g ai/ha
3 | CCc1cnc(C2=NC(C)(C(C)C)C(=O)N2)c(C(=O)O)c1 (stereo not drawn) [Imazethapyr] | 0 | 0 | 0 | 15 | 0 | 0 | 0 | 0 | 0 | 0 | 10 | 10 | 0 | 0 | 0 | 0 | 0 | 0 | 5 | 5 | Soybean response (percent phytotoxicity), Wild type (wild type soybean; [8]): 20%; Soybean response (percent phytotoxicity), Als1 [1, 8]: 20%; Avg response (% phytotoxicity), Trait Als1 ([1]; 560 g ai/ha): 20%; EC10, Als1 [1]: 333.22 g ai/ha; Soybean response (percent phytotoxicity), Als1 + Als2 [2, 8]: 10%; Avg response (% phytotoxicity), Trait Als1 + Als2 ([2]; 560 g ai/ha): 10%; EC10, Als1 + Als2 [2]: 549.93 g ai/ha; Soybean response (percent phytotoxicity), Als2 [3, 4]: 0%; Avg response (% phytotoxicity), Trait Als2 ([3]; 35 g ai/ha): 0%; Soybean response (percent phytotoxicity), Als2 [3, 5]: 0%; Avg response (% phytotoxicity), Trait Als2 ([3]; 70 g ai/ha): 0%; Soybean response (percent phytotoxicity), Als2 [3, 6]: 0%; Avg response (% phytotoxicity), Trait Als2 ([3]; 140 g ai/ha): 0%; Soybean response (percent phytotoxicity), Als2 [3, 7]: 0%; Avg response (% phytotoxicity), Trait Als2 ([3]; 280 g ai/ha): 0%; Soybean response (percent phytotoxicity), Als2 [3, 8]: 5%; Avg response (% phytotoxicity), Trait Als2 ([3]; 560 g ai/ha): 10%; EC10, Als2 [3]: 560.00 g ai/ha
